Laboratory results taken from BindingDB's records for doi:10.1021/jm8008647 (Ewha Womans University, 2008).

Molecular target: T1, Adenosine receptor A3 (Rattus norvegicus, UniProt P28647)
T1 sequence (P28647 whole entry): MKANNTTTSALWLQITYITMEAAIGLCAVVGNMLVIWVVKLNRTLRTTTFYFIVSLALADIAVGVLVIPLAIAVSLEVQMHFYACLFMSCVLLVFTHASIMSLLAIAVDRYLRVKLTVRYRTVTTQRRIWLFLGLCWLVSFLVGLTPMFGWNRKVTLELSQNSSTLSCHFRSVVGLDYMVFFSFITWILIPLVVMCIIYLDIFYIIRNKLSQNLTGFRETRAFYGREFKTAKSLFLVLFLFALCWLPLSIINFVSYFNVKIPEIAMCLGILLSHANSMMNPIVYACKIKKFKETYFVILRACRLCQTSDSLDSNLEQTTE
Assay: Displacement of [125I]I-AB-MECA from rat adenosine A3 receptor expressed in CHO cells

Ki: 0.048 µM
Compound: O[C@@H]1[C@H](O)CS[C@H]1n1cnc2c(NCc3cccc(I)c3)ncnc21 [(2R,3R,4S)-2-(6-(3-Iodobenzylamino)-9H-purin-9-yl)-tetrahydrothiophene-3,4-diol]
